Results as given in paper PMC10040144 (ACS infectious diseases, 2022).

Columns and labels:
E. coli MG1655 [1] = experiment: Phase-contrast imaging of treated cells; assay type: cell-based; conditions: Figure S5
PBP3 = PBP3 (Escherichia coli, UniProt P0AD68); assay type: cell-based, Escherichia coli MG1655
PBP7 = PBP7 (Escherichia coli, UniProt P0AFI5); assay type: cell-based, Escherichia coli MG1655
PBP4 [2] = biological target: T1, PBP4 (Escherichia coli, UniProt P24228); assay type: cell-based, Escherichia coli MG1655; conditions: for Bocillin-FL labeling of PBP4 at high inhibitor concentration: 10 mM inhibitor, all three biological replicates
PBP1a = PBP1a (Escherichia coli, UniProt P02918); assay type: cell-based, Escherichia coli MG1655
PBP2 = PBP2 (Escherichia coli, UniProt P0AD65); assay type: cell-based, Escherichia coli MG1655
PBP1b = PBP1b (Escherichia coli, UniProt P02919); assay type: cell-based, Escherichia coli MG1655
E. coli MG1655 [3] = experiment: Growth curve analysis of viability after permeabilization; conditions: 200 μM in Tris for 30 min, then LB broth 37 °C, A600 over 18 h
PBP5/6 = assay type: cell-based, Escherichia coli MG1655; conditions: 10 mM inhibitor, all three biological replicates
PBP4 [4] = biological target: T1, PBP4; experiment: Meropenem titration against the PBPs in cell lysate; assay type: binding; conditions: E. coli MG1655 lysate, in vitro (Figure S3)
PBP4 [5] = conditions: read-out: reported IC50 values PBP4; literature range; cited from earlier work
[6] = 10 mM inhibitor, all three biological replicates

## O=C(O)CN(CCN(CC(=O)O)CC(=O)O)CC(=O)O [Tris-EDTA, ethylenediaminetetraacetic acid]
E. coli MG1655 [1]
  cell morphology by phase-contrast imaging: little difference in the morphologies
PBPs; cotreatment with 25 μM Bocillin-FL in 50 mM Tris-200 μM EDTA, 30 min
  fold increases in PBP labeling in comparison to Tris alone: 1.2–5 fold
PBPs; vs 7.5 μM Bocillin-FL in PBS, 10 min
  fold increases in Bocillin-FL labeling in comparison to the original DC2 method: 2 to 61 fold

## CO/N=C(\C(=O)N[C@@H]1C(=O)N2C(C(=O)O)=C(COC(N)=O)CS[C@H]12)c1ccco1 [cefuroxime]
PBP3
  IC50: 0.02 ± 0.01 µM
PBP7
  IC50: 25 ± 31 µM
PBP4 [2]
  IC50: 24 ± 22 µM
PBP1a
  IC50: 73 ± 42 µM
PBP2
  IC50: 91 ± 65 µM
PBP1b
  IC50: 1.6 ± 1.9 µM

## CO/N=C(\C(=O)N[C@@H]1C(=O)N2C(C(=O)O)=C(CSc3nc(=O)c(=O)[nH]n3C)CS[C@H]12)c1csc(N)n1 [ceftriaxone]
PBP7
  IC50: 9.5 ± 9.8 µM
PBP4 [2]
  IC50: 3 ± 8 µM
PBP1a
  IC50: 4.9 ± 2.2 µM
PBP2
  IC50: 1.5 ± 0.9 µM
PBP1b
  IC50: 0.2 ± 0.2 µM

## colistin
E. coli MG1655 [3]
  lag in growth: ~ 10 h

## CC1(C)S[C@@H]2[C@H](NC(=O)Cc3ccccc3)C(=O)N2[C@H]1C(=O)O [penicillin G]
PBP3
  IC50: 15 ± 9 µM
PBP1a
  IC50: 170 ± 93 µM
PBP2
  IC50: 65 ± 36 µM
PBP1b
  IC50: 1.5 ± 0.7 µM

## CC1=C(C(=O)O)N2C(=O)[C@@H](NC(=O)[C@H](N)c3ccccc3)[C@H]2SC1 [cephalexin]
PBP7
  IC50: 200 ± 250 µM
PBP4 [2]
  IC50: 68 ± 79 µM
PBP1a
  IC50: > 10000 µM
PBP1b
  IC50: > 10000 µM

## N[C@@H](C(=O)N[C@@H]1C(=O)N2C(C(=O)O)=C(Cl)CS[C@H]12)c1ccccc1 [cefaclor]
PBP3
  IC50: 15 ± 14 µM
PBP7
  IC50: 86 ± 66 µM
PBP4 [2]
  IC50: > 10000 µM
PBP5/6
  Bocillin-FL labeling of PBP5/6 at high inhibitor concentration: labeling was increased
PBP1a
  IC50: > 10000 µM
PBP2
  IC50: 360 ± 210 µM
PBP1b
  IC50: > 10000 µM

## CO/N=C(\C(=O)N[C@@H]1C(=O)N2C(C(=O)[O-])=C(C[N+]3(C)CCCC3)CS[C@H]12)c1csc(N)n1 [cefepime]
PBP3
  IC50: < 0.0001 µM
PBP4 [2]
  IC50: > 10000 µM
  Bocillin-FL labeling of PBP4 at high inhibitor concentration: increased Bocillin-FL labeling
PBP5/6
  Bocillin-FL labeling of PBP5/6 at high inhibitor concentration: increased Bocillin-FL labeling
PBP1a
  IC50: 5.5 ± 2.6 µM
PBP2
  IC50: 0.2 ± 0.1 µM
PBP1b
  IC50: 2.6 ± 2.4 µM

## C[C@@H](O)[C@H]1C(=O)N2C(C(=O)O)=C([C@H]3CCCO3)S[C@H]12 [faropenem]
PBP7
  IC50: 1.2 ± 1.8 µM
PBP4 [2]
  IC50: 2 ± 1.6 µM
PBP1a
  IC50: 6.4 ± 3.6 µM
PBP2
  IC50: 0.04 ± 0.04 µM
PBP1b
  IC50: 0.4 ± 0.2 µM

## C[C@H]1[C@H](NC(=O)/C(=N\OC(C)(C)C(=O)O)c2csc(N)n2)C(=O)N1S(=O)(=O)O [aztreonam]
PBP7; [6]
  Bocillin-FL labeling of PBP7 at high inhibitor concentration: increased Bocillin-FL labeling
PBP4 [2]
  IC50: > 10000 µM
  Bocillin-FL labeling of PBP4 at high inhibitor concentration: increased Bocillin-FL labeling
PBP1a
  IC50: 970 ± 940 µM
PBP2
  IC50: > 10000 µM
PBP2; [6]
  Bocillin-FL labeling of PBP2 at high inhibitor concentration: increased Bocillin-FL labeling
PBP1b
  IC50: 1.6 ± 0.9 µM

## NC(=O)[C@@H]1CC[C@@H]2CN1C(=O)N2OS(=O)(=O)O [avibactam]
PBP3
  IC50: > 10000 µM
PBP4 [2]
  IC50: > 10000 µM
PBP1a
  IC50: > 10000 µM
PBP2
  IC50: < 100 µM
PBP1b
  IC50: 310 ± 460 µM

## CCN1CCN(C(=O)N[C@@H](C(=O)N[C@@H]2C(=O)N3[C@@H]2SC(C)(C)[C@@H]3C(=O)O)c2ccccc2)C(=O)C1=O [piperacillin]
PBP7
  IC50: 2.3 ± 2.5 µM
PBP4 [2]
  IC50: 25 ± 24 µM
PBP1a
  IC50: 17 ± 15 µM
PBP2
  IC50: 2.8 ± 2.8 µM
PBP1b
  IC50: 12 ± 7.4 µM

## COc1cccc(OC)c1C(=O)N[C@@H]1C(=O)N2[C@@H]1SC(C)(C)[C@@H]2C(=O)O [methicillin]
PBP7
  IC50: 58 ± 70 µM
PBP4 [2]
  IC50: 87 ± 51 µM
PBP1a
  IC50: > 10000 µM

## C[C@@H](O)[C@H]1C(=O)N2C(C(=O)O)=C(S[C@@H]3CN[C@H](C(=O)N(C)C)C3)[C@H](C)[C@H]12 [meropenem]
PBP4 [4]
  PBP4 inhibition in lysate: no PBP4 inhibition
PBP4 [2]
  IC50: > 10000 µM
PBP4 [5]
  IC50: 0.0001 to 0.01 µM
PBP1a
  IC50: > 10000 µM
PBP2
  IC50: 0.01 µM
PBP1b
  IC50: 110 ± 86 µM
